ChEMBL document CHEMBL4340553 (Bioorg Med Chem, 2019)

Key:
NCI-H460 = experiment: Cytotoxicity in human NCI-H460 cells assessed as reduction in cell viability incubated for 72 hrs by MTT assay; conditions: NCI-H460, 72 h
MKN-45 = experiment: Cytotoxicity in human MKN45 cells assessed as reduction in cell viability incubated for 72 hrs by MTT assay; conditions: MKN-45, 72 h
HT-29 = experiment: Cytotoxicity in human HT-29 cells assessed as reduction in cell viability incubated for 72 hrs by MTT assay; conditions: HT-29, 72 h
MDA-MB-231 = experiment: Cytotoxicity in human MDA-MB-231 cells assessed as reduction in cell viability incubated for 72 hrs by MTT assay; conditions: MDA-MB-231, 72 h
[1] = biological target: Hepatocyte growth factor receptor (Homo sapiens, UniProt P08581); experiment: Inhibition of c-Met (unknown origin) using poly (Glu, Tyr) 4:1 substrate incubated for 30 mins by HTRF assay
Chain of Hepatocyte growth factor receptor (P08581 whole entry): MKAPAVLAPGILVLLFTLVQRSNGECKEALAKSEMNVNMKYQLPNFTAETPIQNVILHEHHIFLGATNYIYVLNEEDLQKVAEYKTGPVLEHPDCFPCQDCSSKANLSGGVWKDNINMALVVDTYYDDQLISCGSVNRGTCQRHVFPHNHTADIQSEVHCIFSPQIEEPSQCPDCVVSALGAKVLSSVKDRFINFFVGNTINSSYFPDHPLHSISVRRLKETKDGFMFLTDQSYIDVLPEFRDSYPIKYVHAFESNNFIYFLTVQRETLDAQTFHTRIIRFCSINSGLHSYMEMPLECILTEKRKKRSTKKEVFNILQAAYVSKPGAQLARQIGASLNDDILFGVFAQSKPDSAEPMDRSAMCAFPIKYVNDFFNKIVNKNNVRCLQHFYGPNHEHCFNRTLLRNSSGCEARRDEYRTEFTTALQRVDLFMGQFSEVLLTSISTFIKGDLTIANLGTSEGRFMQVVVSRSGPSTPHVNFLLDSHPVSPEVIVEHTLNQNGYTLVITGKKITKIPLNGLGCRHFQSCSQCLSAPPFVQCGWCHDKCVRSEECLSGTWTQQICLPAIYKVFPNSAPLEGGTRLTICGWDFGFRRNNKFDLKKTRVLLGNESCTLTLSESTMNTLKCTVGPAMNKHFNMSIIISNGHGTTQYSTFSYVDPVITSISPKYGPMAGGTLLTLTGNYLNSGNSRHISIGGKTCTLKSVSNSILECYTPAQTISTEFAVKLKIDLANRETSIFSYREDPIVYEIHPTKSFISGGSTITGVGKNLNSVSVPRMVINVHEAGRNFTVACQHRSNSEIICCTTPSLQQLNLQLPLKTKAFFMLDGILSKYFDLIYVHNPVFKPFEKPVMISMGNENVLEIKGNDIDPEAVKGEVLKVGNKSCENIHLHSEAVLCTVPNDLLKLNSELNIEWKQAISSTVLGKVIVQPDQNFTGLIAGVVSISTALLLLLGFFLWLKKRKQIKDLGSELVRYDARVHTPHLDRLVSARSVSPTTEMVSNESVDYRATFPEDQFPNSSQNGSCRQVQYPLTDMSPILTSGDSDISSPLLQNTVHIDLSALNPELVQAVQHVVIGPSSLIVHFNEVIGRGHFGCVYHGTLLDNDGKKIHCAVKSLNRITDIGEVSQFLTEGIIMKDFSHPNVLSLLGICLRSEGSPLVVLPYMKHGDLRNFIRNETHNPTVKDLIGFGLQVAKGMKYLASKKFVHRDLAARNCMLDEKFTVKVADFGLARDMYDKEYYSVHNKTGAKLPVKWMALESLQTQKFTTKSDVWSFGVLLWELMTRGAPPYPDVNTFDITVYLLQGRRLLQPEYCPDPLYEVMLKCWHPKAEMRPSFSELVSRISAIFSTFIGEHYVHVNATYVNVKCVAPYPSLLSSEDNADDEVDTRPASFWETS

[2] = Inhibition of VEGFR (unknown origin) using poly (Glu, Tyr) 4:1 substrate incubated for 30 mins by HTRF assay; design: species or system Homo sapiens
[3] = biological target: Mast/stem cell growth factor receptor Kit (Homo sapiens, UniProt P10721); experiment: Inhibition of c-Kit (unknown origin) using poly (Glu, Tyr) 4:1 substrate incubated for 30 mins by HTRF assay
Chain of Mast/stem cell growth factor receptor Kit (P10721 whole entry): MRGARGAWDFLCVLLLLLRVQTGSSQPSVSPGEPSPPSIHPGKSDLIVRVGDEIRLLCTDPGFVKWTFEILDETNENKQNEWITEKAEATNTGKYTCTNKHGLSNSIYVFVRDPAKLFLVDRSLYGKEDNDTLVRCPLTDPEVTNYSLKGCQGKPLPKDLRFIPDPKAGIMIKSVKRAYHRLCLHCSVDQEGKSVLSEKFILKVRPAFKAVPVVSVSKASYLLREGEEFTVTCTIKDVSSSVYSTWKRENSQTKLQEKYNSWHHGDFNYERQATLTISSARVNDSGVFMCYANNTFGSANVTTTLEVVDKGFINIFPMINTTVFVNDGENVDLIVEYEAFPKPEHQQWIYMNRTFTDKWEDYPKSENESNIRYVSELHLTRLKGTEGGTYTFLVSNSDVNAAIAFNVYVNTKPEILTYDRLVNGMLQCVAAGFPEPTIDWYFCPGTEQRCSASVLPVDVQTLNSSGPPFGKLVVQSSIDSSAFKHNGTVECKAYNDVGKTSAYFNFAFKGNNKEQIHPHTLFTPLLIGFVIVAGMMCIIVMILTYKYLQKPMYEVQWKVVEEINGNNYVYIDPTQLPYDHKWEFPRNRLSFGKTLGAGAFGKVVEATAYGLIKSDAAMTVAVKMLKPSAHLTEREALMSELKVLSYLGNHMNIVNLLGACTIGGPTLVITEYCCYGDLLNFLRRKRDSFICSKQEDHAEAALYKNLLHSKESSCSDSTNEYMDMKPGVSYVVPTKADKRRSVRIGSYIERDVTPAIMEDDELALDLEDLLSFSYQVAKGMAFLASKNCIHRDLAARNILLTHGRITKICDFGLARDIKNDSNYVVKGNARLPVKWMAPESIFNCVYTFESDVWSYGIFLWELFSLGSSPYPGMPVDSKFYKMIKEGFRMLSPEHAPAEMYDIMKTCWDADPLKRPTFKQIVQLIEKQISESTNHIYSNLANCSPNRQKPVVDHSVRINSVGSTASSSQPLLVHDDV

[4] = biological target: T1, Receptor-type tyrosine-protein kinase FLT3 (Homo sapiens, UniProt P36888); experiment: Inhibition of FLT3 (unknown origin) using poly (Glu, Tyr) 4:1 substrate incubated for 30 mins by HTRF assay
T1 sequence (P36888 whole entry): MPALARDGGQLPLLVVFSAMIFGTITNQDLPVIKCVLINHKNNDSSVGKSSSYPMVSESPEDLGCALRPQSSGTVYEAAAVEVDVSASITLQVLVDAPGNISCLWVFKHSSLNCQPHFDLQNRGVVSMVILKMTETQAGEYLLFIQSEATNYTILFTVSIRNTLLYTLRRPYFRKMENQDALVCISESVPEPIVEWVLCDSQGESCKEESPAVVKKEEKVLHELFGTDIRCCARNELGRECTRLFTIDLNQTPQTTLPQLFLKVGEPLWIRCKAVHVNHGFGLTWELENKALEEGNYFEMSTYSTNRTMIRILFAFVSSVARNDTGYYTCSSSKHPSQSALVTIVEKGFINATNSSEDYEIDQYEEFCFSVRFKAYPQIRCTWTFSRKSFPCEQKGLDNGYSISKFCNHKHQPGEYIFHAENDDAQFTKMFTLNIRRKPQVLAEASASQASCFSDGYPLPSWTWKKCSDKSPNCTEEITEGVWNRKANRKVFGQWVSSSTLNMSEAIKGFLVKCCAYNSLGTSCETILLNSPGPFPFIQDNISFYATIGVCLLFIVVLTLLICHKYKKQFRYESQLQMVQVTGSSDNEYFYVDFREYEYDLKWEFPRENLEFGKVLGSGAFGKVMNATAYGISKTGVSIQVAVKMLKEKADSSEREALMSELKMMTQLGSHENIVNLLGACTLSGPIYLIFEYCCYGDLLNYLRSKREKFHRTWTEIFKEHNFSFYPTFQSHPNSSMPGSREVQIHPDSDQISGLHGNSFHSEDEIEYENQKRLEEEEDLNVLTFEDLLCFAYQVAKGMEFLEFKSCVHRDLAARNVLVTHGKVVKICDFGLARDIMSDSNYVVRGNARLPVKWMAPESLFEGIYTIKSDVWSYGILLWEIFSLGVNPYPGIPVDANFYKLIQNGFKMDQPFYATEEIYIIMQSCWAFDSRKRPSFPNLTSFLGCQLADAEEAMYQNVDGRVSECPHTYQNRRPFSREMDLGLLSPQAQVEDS

[5] = biological target: Macrophage-stimulating protein receptor (Homo sapiens, UniProt Q04912); experiment: Inhibition of RON (unknown origin) using poly (Glu, Tyr) 4:1 substrate incubated for 30 mins by HTRF assay
[6] = biological target: Epidermal growth factor receptor (Homo sapiens, UniProt P00533); experiment: Inhibition of EGFR (unknown origin) using poly (Glu, Tyr) 4:1 substrate incubated for 30 mins by HTRF assay
[7] = biological target: Platelet-derived growth factor receptor alpha (Homo sapiens, UniProt P16234); experiment: Inhibition of PDGFRalpha (unknown origin) using poly (Glu, Tyr) 4:1 substrate incubated for 30 mins by HTRF assay
Chain of Platelet-derived growth factor receptor alpha (P16234 whole entry): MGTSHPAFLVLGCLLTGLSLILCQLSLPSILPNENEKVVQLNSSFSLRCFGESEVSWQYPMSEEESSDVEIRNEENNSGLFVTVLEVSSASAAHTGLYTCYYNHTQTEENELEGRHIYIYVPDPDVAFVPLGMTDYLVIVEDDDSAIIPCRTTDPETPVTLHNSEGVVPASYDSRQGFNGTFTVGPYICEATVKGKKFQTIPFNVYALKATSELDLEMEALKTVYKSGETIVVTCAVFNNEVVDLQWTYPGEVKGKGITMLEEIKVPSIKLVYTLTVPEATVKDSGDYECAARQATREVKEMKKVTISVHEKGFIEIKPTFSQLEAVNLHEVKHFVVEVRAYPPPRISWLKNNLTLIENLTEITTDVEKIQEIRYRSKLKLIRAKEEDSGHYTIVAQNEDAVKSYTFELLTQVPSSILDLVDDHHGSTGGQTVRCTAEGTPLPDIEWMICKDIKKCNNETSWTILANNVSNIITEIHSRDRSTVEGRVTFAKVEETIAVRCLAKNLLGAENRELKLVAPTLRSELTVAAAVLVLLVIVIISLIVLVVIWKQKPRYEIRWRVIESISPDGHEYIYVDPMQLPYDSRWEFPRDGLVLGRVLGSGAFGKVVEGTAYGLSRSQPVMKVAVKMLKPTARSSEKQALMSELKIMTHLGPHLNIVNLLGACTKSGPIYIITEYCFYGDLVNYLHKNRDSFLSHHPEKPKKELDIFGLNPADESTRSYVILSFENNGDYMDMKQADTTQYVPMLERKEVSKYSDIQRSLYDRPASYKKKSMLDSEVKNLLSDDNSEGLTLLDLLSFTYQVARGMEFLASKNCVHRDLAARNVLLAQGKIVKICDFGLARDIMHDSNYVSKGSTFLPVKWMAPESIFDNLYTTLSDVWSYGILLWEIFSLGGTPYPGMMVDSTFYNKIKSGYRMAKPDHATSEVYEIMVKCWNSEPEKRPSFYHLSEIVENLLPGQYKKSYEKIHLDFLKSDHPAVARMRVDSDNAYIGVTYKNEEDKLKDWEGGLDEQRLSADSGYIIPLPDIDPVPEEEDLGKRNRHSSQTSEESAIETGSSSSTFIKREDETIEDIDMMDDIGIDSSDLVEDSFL

[8] = biological target: Platelet-derived growth factor receptor beta (Homo sapiens, UniProt P09619); experiment: Inhibition of PDGFRbeta (unknown origin) using poly (Glu, Tyr) 4:1 substrate incubated for 30 mins by HTRF assay
[9] = biological target: Vascular endothelial growth factor receptor 2 (Homo sapiens, UniProt P35968); experiment: Inhibition of KDR (unknown origin) using poly (Glu, Tyr) 4:1 substrate incubated for 30 mins by HTRF assay
Chain of Vascular endothelial growth factor receptor 2 (P35968 whole entry): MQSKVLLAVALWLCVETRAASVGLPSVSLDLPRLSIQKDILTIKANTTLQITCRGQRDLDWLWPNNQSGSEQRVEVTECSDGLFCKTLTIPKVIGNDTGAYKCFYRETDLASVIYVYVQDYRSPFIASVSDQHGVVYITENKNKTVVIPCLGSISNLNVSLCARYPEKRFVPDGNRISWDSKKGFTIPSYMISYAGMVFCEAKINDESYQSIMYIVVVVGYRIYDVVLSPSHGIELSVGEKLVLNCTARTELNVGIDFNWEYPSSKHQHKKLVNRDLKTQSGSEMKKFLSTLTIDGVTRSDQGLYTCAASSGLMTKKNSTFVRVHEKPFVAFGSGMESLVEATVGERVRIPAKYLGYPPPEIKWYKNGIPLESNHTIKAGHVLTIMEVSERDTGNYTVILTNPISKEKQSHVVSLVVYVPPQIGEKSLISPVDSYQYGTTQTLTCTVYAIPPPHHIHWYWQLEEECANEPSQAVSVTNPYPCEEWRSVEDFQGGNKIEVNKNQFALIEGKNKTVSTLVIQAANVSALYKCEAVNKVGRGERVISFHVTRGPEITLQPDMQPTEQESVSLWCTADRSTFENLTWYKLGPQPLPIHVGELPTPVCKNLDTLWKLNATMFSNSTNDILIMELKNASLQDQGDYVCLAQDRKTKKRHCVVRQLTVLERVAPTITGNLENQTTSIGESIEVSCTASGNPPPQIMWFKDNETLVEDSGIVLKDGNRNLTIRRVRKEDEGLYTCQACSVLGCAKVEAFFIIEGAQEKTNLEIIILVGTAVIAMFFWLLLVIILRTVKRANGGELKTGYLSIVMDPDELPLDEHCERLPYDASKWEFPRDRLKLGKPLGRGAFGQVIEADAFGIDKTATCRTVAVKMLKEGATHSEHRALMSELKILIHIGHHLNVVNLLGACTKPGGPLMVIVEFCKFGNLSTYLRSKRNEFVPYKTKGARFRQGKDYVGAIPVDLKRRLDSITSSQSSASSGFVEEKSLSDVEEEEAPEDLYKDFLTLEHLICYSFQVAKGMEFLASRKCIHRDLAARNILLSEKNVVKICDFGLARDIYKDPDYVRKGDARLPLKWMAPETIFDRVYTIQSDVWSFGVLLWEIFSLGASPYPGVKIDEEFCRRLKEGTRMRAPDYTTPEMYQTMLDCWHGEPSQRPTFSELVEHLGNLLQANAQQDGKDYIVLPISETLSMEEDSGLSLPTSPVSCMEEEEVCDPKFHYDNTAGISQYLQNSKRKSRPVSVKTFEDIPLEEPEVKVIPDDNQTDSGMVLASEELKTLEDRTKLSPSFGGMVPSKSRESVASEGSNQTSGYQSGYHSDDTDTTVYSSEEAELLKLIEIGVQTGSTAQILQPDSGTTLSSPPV

[10] = biological target: Vascular endothelial growth factor receptor 1 (Homo sapiens, UniProt P17948); experiment: Inhibition of FLT1 (unknown origin) using poly (Glu, Tyr) 4:1 substrate incubated for 30 mins by HTRF assay
[11] = biological target: ALK tyrosine kinase receptor (Homo sapiens, UniProt Q9UM73); experiment: Inhibition of ALK (unknown origin) using poly (Glu, Tyr) 4:1 substrate incubated for 30 mins by HTRF assay

Compound	IC50 (NCI-H460) [nM]	IC50 (MKN-45) [nM]	IC50 (HT-29) [nM]	IC50 (MDA-MB-231) [nM]	other results
COc1cc2c(Oc3ccc(NC(=O)NS(=O)(=O)Cc4ccc(C)cc4)cc3F)ccnc2cc1OCCCN1CCCCC1	920	1130	2170	2540	–
COc1cc2nccc(Oc3ccc(NC(=O)NS(=O)(=O)Cc4ccccc4)cc3F)c2cc1OC	1540	1430	3020	2450	–
COc1cc2nccc(Oc3ccc(NC(=O)NS(=O)(=O)Cc4ccc(Cl)cc4)cc3F)c2cc1OC	1450	1420	2880	3160	–
CCCCOc1cc2nccc(Oc3ccc(NC(=O)NS(=O)(=O)Cc4ccc(F)cc4)cc3F)c2cc1OC	1440	1310	2880	2290	–
COc1cc2nccc(Oc3ccc(NC(=O)NS(=O)(=O)Cc4ccccc4C)cc3F)c2cc1OC	3020	3420	6210	5670	–
COc1cc2nccc(Oc3ccc(NC(=O)NS(=O)(=O)Cc4ccc(C(F)(F)F)cc4)cc3F)c2cc1OC	12200	10300	8150	9460	–
COc1cc2nccc(Oc3ccc(NC(=O)NS(=O)(=O)Cc4ccc(C)cc4)cc3F)c2cc1OC	4770	5380	7150	7620	–
COc1cc2c(Oc3ccc(NC(=O)NS(=O)(=O)Cc4ccc(C)cc4)cc3F)ccnc2cc1OCCCN1CCOCC1	1540	1670	3760	3860	–
COc1cc2c(Oc3ccc(NC(=O)NS(=O)(=O)Cc4ccccc4)cc3F)ccnc2cc1OCCCN1CCCC1	430	610	930	1210	–
COc1cc2nccc(Oc3ccc(NC(=O)NS(=O)(=O)Cc4cccc(C)c4)cc3F)c2cc1OC	3870	4540	6030	6560	–
CCCCOc1cc2nccc(Oc3ccc(NC(=O)NS(=O)(=O)Cc4ccccc4)cc3F)c2cc1OC	1840	1720	3120	2400	–
COc1cc2c(Oc3ccc(NC(=O)NS(=O)(=O)Cc4ccc(F)cc4)cc3F)ccnc2cc1OCCCN1CCCC1	55	64	160	490	IC50 [1]: 1.98 nM; IC50 [2]: 689 nM; IC50 [3]: 380 nM; IC50 [4]: 400 nM; IC50 [5]: 375 nM; IC50 [6]: > 10000 nM; IC50 [7]: 242 nM; IC50 [8]: 356 nM; IC50 [9]: 95 nM; IC50 [10]: 418 nM; IC50 [11]: > 10000 nM
CCCCOc1cc2nccc(Oc3ccc(NC(=O)NS(=O)(=O)Cc4ccc(C)cc4)cc3F)c2cc1OC	5870	6480	9320	8980	–
COc1cc2nccc(Oc3ccc(NC(=O)NS(=O)(=O)Cc4cccc(F)c4)cc3F)c2cc1OC	1790	1630	3060	3530	–
COc1cc2c(Oc3ccc(NC(=O)NS(=O)(=O)Cc4ccc(F)cc4)cc3F)ccnc2cc1OCCCN1CCOCC1	160	120	340	780	–
COc1cc2nccc(Oc3ccc(NC(=O)NS(=O)(=O)Cc4ccc(Cl)cc4Cl)cc3F)c2cc1OC	3540	2240	2970	4560	–
COc1cc2nccc(Oc3ccc(NC(=O)NS(=O)(=O)Cc4ccc(Br)cc4)cc3F)c2cc1OC	1650	1420	3120	2260	–
COc1cc2nccc(Oc3ccc(NC(=O)NS(=O)(=O)Cc4ccccc4)cc3)c2cc1OC	2600	2080	4350	3840	–
COc1cc2nccc(Oc3ccc(NC(=O)NS(=O)(=O)Cc4ccc(F)cc4)cc3)c2cc1OC	1980	1320	3250	2640	–
COc1cc2c(Oc3ccc(NC(=O)NS(=O)(=O)Cc4ccccc4)cc3F)ccnc2cc1OCCCN1CCOCC1	600	330	1280	1080	–
COc1cc2c(Oc3ccc(NC(=O)NS(=O)(=O)Cc4ccc(F)cc4)cc3F)ccnc2cc1OCCCN1CCCCC1	150	230	320	600	–
COc1cc2c(Oc3ccc(NC(=O)NS(=O)(=O)Cc4ccccc4)cc3F)ccnc2cc1OCCCN1CCCCC1	740	650	1230	1940	–
COc1cc2nccc(Oc3ccc(NC(=O)NS(=O)(=O)Cc4ccccc4F)cc3F)c2cc1OC	1880	2020	3120	2950	–
COc1cc2nccc(Oc3ccc(NC(=O)NS(=O)(=O)Cc4ccc(F)cc4)cc3F)c2cc1OC	1040	960	2680	2040	–
COc1cc2c(Oc3ccc(NC(=O)C4(C(=O)Nc5ccc(F)cc5)CC4)cc3F)ccnc2cc1OCCCN1CCOCC1 [FORETINIB]	–	–	–	–	IC50 [2]: 4.96 nM
